Reference: US4891373A, “Aminopropanol derivatives of 1,4:3,6-dianhydrohexitol nitrates, processes for their preparation and their use as medicaments” (Pfizer Inc., priority 1988, dated 1990)

How the values were obtained:
[1] = test system: T-wave increase in the ECG induced by lypressin; assay: Influence on the T-wave increase in the ECG of the anesthetized rat induced by intravenous bolus injection of lypressin; format: in vivo; conditions: p.o.
Experimental: Influence of various compounds on the T-wave
increase in the ECG of the anesthetized rat induced by
intravenous bolus injection of lypressin was determined
following the method of M. Leitold et al., Drug Res.,
36, 1454 (1986). The substances were administered
perorally 30 minutes or at various times before the […]

[2] = Survival rate of rats after an acute coronary ligature; format: in vivo, rat
Experimental: Influence of various substances on the survival
rate of rats 60 minutes, 24 hours and 7 days after an
acute coronary ligature was determined following the
method of I. Lepran, et al., L. Szekeres, Acta
Physiologica Sci. Hungaricae 53, 190 (1979). The
substances were administered orally 5 minutes before
the acute coronary ligature.

[3] = test system: cardiovascular parameters (MAP, HR, LVSP, LVEDP, dp/dtmax, TPR, PAP, SV, CO); assay: Cardiovascular actions following intravenous administration to anesthetized dogs (pentobarbital) with opened thorax and artificial respiration; format: in vivo, dog; conditions: for CO (cardiac output), change / PAP (blood pressure in the A. pulmonalis), change / SV (stroke volume), change: vs pre-value, unsigned
Text: (§1) venous administration to anesthetized dogs (pentobarbital)
(§2) with an opened thorax and artificial respiration.
as §1, §2

[4] = test system: systolic blood pressure (SBP) and heart rate (HR); assay: Systolic blood pressure and heart rate following peroral administration to conscious beagle dogs; format: in vivo, beagle dog; conditions: mean ± SEM
Text: Duration of the action of various substances on the systolic blood
heart rate (HR) following peroral administration to conscious beagle

[5] = Tolerance of peroral dose in mice; conditions: mouse, in vivo, po
Text: Set forth below is data obtained on the compounds of Examples 17, 19 and 20 that illustrates the pharmacological action of the compounds of the present invention.

[6] = 60 minutes, 100.0 mg/kg orally 5 min before ligature
[7] = 24 hours, 100.0 mg/kg orally 5 min before ligature
[8] = 7 days, 100.0 mg/kg orally 5 min before ligature

Compound	Duration of action at the ED50 dose [1] [h]	CO (cardiac output), action of substance ([3]; 30 μg/kg i.v.) [l/M]	CO (cardiac output), duration of action ([3]; 30 μg/kg i.v.) [min]	PAP (blood pressure in the A. pulmonalis), action of substance ([3]; 30 μg/kg i.v.) [mmHg]	PAP (blood pressure in the A. pulmonalis), duration of action ([3]; 30 μg/kg i.v.) [min]	SV (stroke volume), duration of action ([3]; 30 μg/kg i.v.) [min]	CO (cardiac output), change ([3]; 30 μg/kg i.v.) [l/M]	PAP (blood pressure in the A. pulmonalis), change ([3]; 30 μg/kg i.v.) [mmHg]	SV (stroke volume), change ([3]; 30 μg/kg i.v.) [mL/s]	CO (cardiac output), duration of action ([3]; 300 μg/kg i.v.) [min]	PAP (blood pressure in the A. pulmonalis), duration of action ([3]; 300 μg/kg i.v.) [min]	SV (stroke volume), action of substance ([3]; 300 μg/kg i.v.) [mL/s]	SV (stroke volume), duration of action ([3]; 300 μg/kg i.v.) [min]	PAP (blood pressure in the A. pulmonalis), change ([3]; 300 μg/kg i.v.) [mmHg]	SV (stroke volume), change ([3]; 300 μg/kg i.v.) [mL/s]	CO (cardiac output), duration of action ([3]; 3000 μg/kg i.v.) [min]	PAP (blood pressure in the A. pulmonalis), duration of action ([3]; 3000 μg/kg i.v.) [min]	SV (stroke volume), duration of action ([3]; 3000 μg/kg i.v.) [min]	CO (cardiac output), change ([3]; 3000 μg/kg i.v.) [l/m]	Tolerated peroral dose [5] [mg/kg]	further results
COc1ccccc1N1CCN(CC(O)CO[C@H]2CO[C@H]3[C@@H]2OC[C@H]3O[N+](=O)[O-])CC1 (stereo partly drawn) [Example 17, 2-O-<3-[4-(2-Methoxyphenyl)-piperazinyl]-2-hydroxypropyl>-isosorbide-5-nitrate]	2	0.93 ± 0.07	6 ± 3	17.0 ± 4	2 ± 0.3	2 ± 0.2	0.07 ± 0.04	1.3 ± 0.5	0.4 ± 0.2	73 ± 40	1.4 ± 0.1	3.7 ± 0.4	74 ± 43	1.5 ± 0.5	0.7 ± 0.3	> 75	2 ± 0.6	> 75	0.450 ± 0.025	500	Number of rats surviving after an acute coronary ligature ([2]; 60 minutes, 30.0 mg/kg orally 5 min before ligature): 17/20; Number of rats surviving after an acute coronary ligature ([2]; 24 hours, 30.0 mg/kg orally 5 min before ligature): 17/20; Number of rats surviving after an acute coronary ligature ([2]; 7 days, 30.0 mg/kg orally 5 min before ligature): 17/20; SV (stroke volume), action of substance ([3]; 3000 μg/kg i.v.): 3.0 ± 0.6 mL/s; PAP (blood pressure in the A. pulmonalis), change ([3]; 3000 μg/kg i.v.): 2.3 ± 0.8 mmHg; SV (stroke volume), change ([3]; 3000 μg/kg i.v.): 2.6 ± 0.4 mL/s; SBP (systolic blood pressure), action of substance ([4]; 6.0 mg/kg p.o., after 1 hour): 91 ± 6 mmHg; HR (heart rate), action of substance ([4]; 6.0 mg/kg p.o., after 2 hours): 110 ± 16 Bts/M; SBP (systolic blood pressure), action of substance ([4]; 6.0 mg/kg p.o., after 2 hours): 89 ± 4 mmHg; HR (heart rate), action of substance ([4]; 6.0 mg/kg p.o., after 3 hours): 89 ± 8 Bts/M; SBP (systolic blood pressure), action of substance ([4]; 6.0 mg/kg p.o., after 3 hours): 97 ± 5 mmHg; HR (heart rate), action of substance ([4]; 6.0 mg/kg p.o., after 6 hours): 89 ± 5 Bts/M; HR (heart rate), action of substance ([4]; 6.0 mg/kg p.o., after 8 hours): 85 ± 7 Bts/M
COc1ccccc1N1CCN(CC(O)CO[C@@H]2CO[C@H]3[C@@H]2OC[C@H]3O[N+](=O)[O-])CC1 (stereo partly drawn) [Example 19, 5-O-<3-[4-(2-Methoxyphenyl)-piperazinyl]-2-hydroxypropyl>-isomannide-2-nitrate]	4	–	–	–	–	–	–	–	–	–	–	–	–	–	–	–	–	–	–	500	Number of rats surviving after an acute coronary ligature [2, 6]: 15/20; Number of rats surviving after an acute coronary ligature [2, 7]: 15/20; Number of rats surviving after an acute coronary ligature [2, 8]: 15/20; HR (heart rate), action of substance ([4]; 5.0 mg/kg p.o., after 2 hours): 90 ± 5 Bts/M; HR (heart rate), action of substance ([4]; 5.0 mg/kg p.o., after 3 hours): 85 ± 5 Bts/M; SBP (systolic blood pressure), action of substance ([4]; 5.0 mg/kg p.o., after 3 hours): 118 ± 6 mmHg; HR (heart rate), action of substance ([4]; 5.0 mg/kg p.o., after 6 hours): 86 ± 5 Bts/M
COc1ccccc1N1CCN(CC(O)CO[C@H]2CO[C@H]3[C@@H]2OC[C@@H]3O[N+](=O)[O-])CC1 (stereo partly drawn) [Example 20, 5-O-<3-[4-(2-Methoxyphenyl)-piperazinyl]-2-hydroxypropyl>-isoidide-2-nitrat]	4	0.81 ± 0.3	12 ± 6	16.0 ± 1	11 ± 6	12 ± 6	0.38 ± 0.1	0.4 ± 0.2	2.3 ± 1	35 ± 23	14 ± 13	7.2 ± 2.5	33 ± 23	0.7 ± 0.3	0.5 ± 2.9	3 ± 0.4	> 177	4 ± 0.0	0.87 ± 0.7	500	Number of rats surviving after an acute coronary ligature [2, 6]: 14/20; Number of rats surviving after an acute coronary ligature [2, 7]: 14/20; Number of rats surviving after an acute coronary ligature [2, 8]: 14/20; SV (stroke volume), action of substance ([3]; 30 μg/kg i.v.): 7.5 ± 2 mL/s; CO (cardiac output), change ([3]; 300 μg/kg i.v.): 0.21 ± 0.6 l/M; PAP (blood pressure in the A. pulmonalis), change ([3]; 3000 μg/kg i.v.): 1.1 ± 0.3 mmHg; HR (heart rate), action of substance ([4]; 5.0 mg/kg p.o., after 1 hour): 98 ± 7 Bts/M; SBP (systolic blood pressure), action of substance ([4]; 5.0 mg/kg p.o., after 1 hour): 97 ± 8 mmHg; SBP (systolic blood pressure), action of substance ([4]; 5.0 mg/kg p.o., after 2 hours): 95 ± 6 mmHg; HR (heart rate), action of substance ([4]; 5.0 mg/kg p.o., after 3 hours): 82 ± 7 Bts/M; SBP (systolic blood pressure), action of substance ([4]; 5.0 mg/kg p.o., after 3 hours): 106 ± 4 mmHg; HR (heart rate), action of substance ([4]; 5.0 mg/kg p.o., after 6 hours): 78 ± 6 Bts/M; HR (heart rate), action of substance ([4]; 5.0 mg/kg p.o., after 8 hours): 77 ± 6 Bts/M
